Paper PMC9393165 (Scientific Reports, 2022)
Marks after values point to notes of the source that are not given here.

Assay: Proportions of kidney transplant recipients with subtherapeutic or supratherapeutic tacrolimus trough concentration
Assay type: in vivo, human
Protocol: All participants received oral, immediate-release tacrolimus (Prograf®; Astellas, Kerry, Ireland). According to Siriraj Hospital protocol, the initial dose (0.05 mg/kg every 12 h) of tacrolimus was started 2 days before KT (day − 2) and subsequently adjusted after KT based on efficacy and toxicity and to maintain morning trough concentrations of 7 to 10 ng/mL in standard risk patients and 10 to 12 ng/mL in high-risk patients during the first week after transplantation. Participants also received either mycophenolate mofetil (Cellcept®; F Hoffmann-La Roche Ltd, Basel, Switzerland or Immucept®; Intas Pharmaceuticals Ltd., Gujarat, India) or mycophenolate sodium (Myfortic®; Novartis Pharma Stein, Switzerland for Novartis AG, Basel, Switzerland) at the dosage equivalent to 2 g/day of mycophenolate mofetil. A tapered corticosteroid regimen was administered consisting of an intravenous bolus of 500 mg of methylprednisolone (Solu-medrol®; Novartis Pharma Stein, Switzerland for Novartis AG, Basel, Switzerland) on day 0, 250 mg on day 1, 125 mg on day 2 followed by 40 mg/day of prednisolone on day 4 after KT. The subsequent prednisolone doses were gradually tapered thereafter. Induction therapy with basiliximab (Simulect®; Novartis Pharma AG, Basel, Switzerland) was allowed.
On day 7 post-KT, after the tacrolimus dosage was stable for at least 48 h, venous blood samples (5 mL) were collected at pre-dose and 1, 2, 4, 6, 8 and 12 h after the morning dose of tacrolimus. Samples were collected in EDTA tubes and stored at 4 degrees Celsius until analysis. Whole blood tacrolimus concentrations were determined within the same day of blood collection by using a chemiluminescent microparticle immunoassay method with […] system® i2000 (Abbott, Abbott Diagnostic, USA). The method was linear in the concentration range up to 30 ng/mL, the limits of quantification were 0.8 ng/mL, and the coefficient of variation of within run precision and between run precision were less than 10%. Mean recovery was 100 ± 10% according to the manufacturer’s information.
The primary outcome measure was AUC/D at day 7 post-KT. […]

[1] = day 1 post-transplantation, CYP3A5 expressers, diltiazem (n = 11)
[2] = day 1 post-transplantation, CYP3A5 expressers, placebo (n = 12)
[3] = day 1 post-transplantation, CYP3A5 non-expressers, diltiazem (n = 9)
[4] = day 1 post-transplantation, CYP3A5 non-expressers, placebo (n = 8)
[5] = day 1 post-transplantation, total (n = 40)
[6] = day 3 post-transplantation, CYP3A5 expressers, diltiazem (n = 11)
[7] = day 3 post-transplantation, CYP3A5 expressers, placebo (n = 12)
[8] = day 3 post-transplantation, CYP3A5 non-expressers, diltiazem (n = 9)
[9] = day 3 post-transplantation, CYP3A5 non-expressers, placebo (n = 8)
[10] = day 3 post-transplantation, total (n = 40)
[11] = day 5 post-transplantation, CYP3A5 expressers, diltiazem (n = 11)
[12] = day 5 post-transplantation, CYP3A5 expressers, placebo (n = 12)
[13] = day 5 post-transplantation, CYP3A5 non-expressers, diltiazem (n = 9)
[14] = day 5 post-transplantation, CYP3A5 non-expressers, placebo (n = 8)
[15] = day 5 post-transplantation, total (n = 40)
[16] = day 7 post-transplantation, CYP3A5 expressers, diltiazem (n = 11)
[17] = day 7 post-transplantation, CYP3A5 expressers, placebo (n = 12)
[18] = day 7 post-transplantation, CYP3A5 non-expressers, diltiazem (n = 9)
[19] = day 7 post-transplantation, CYP3A5 non-expressers, placebo (n = 8)
[20] = day 7 post-transplantation, total (n = 40)

C=CC[C@@H]1/C=C(\C)C[C@H](C)C[C@H](OC)[C@H]2O[C@@](O)(C(=O)C(=O)N3CCCC[C@H]3C(=O)O[C@H](/C(C)=C/[C@@H]3CC[C@@H](O)[C@H](OC)C3)[C@H](C)[C@@H](O)CC1=O)[C@H](C)C[C@@H]2OC [Tacrolimus]
Trough concentration higher than 15 ng/mL [1]: 1 (9.1) n (%)
Trough concentration lower than 5 ng/mL [1]: 0 (0) n (%)
Trough concentration lower than the target range [1]: 1 (9.1) n (%)
Trough concentration higher than 15 ng/mL [2]: 0 (0) n (%)
Trough concentration lower than 5 ng/mL [2]: 4 (33.3) n (%)
Trough concentration lower than the target range [2]: 7 (58.3) n (%)
Trough concentration higher than 15 ng/mL [3]: 3 (33.3) n (%)
Trough concentration lower than 5 ng/mL [3]: 1 (11.1) n (%)
Trough concentration lower than the target range [3]: 2 (22.2) n (%)
Trough concentration higher than 15 ng/mL [4]: 3 (37.5) n (%)
Trough concentration lower than 5 ng/mL [4]: 1 (12.5) n (%)
Trough concentration lower than the target range [4]: 2 (25.0) n (%)
Trough concentration higher than 15 ng/mL [5]: 7 (17.5) n (%)
Trough concentration lower than 5 ng/mL [5]: 6 (15.0) n (%)
Trough concentration lower than the target range [5]: 12 (30.0) n (%)
Trough concentration lower than 5 ng/mL (day 3 post-transplantation, CYP3A5 expressers, diltiazem (EXdtz, n = 11)): 1 (9.1) n (%)
Trough concentration lower than 5 ng/mL (day 3 post-transplantation, CYP3A5 expressers, diltiazem (EXdtz, n = 11), listed as tacrolimus): one
Trough concentration higher than 15 ng/mL [6]: 0 (0) n (%)
Trough concentration lower than the target range [6]: 2 (18.2)^b n (%)
Trough concentration lower than 5 ng/mL (day 3 post-transplantation, CYP3A5 expressers, placebo (EXplb, n = 12)): 4 (33.3) n (%)
Trough concentration lower than 5 ng/mL (day 3 post-transplantation, CYP3A5 expressers, placebo (EXplb, n = 12), listed as tacrolimus): four
Trough concentration higher than 15 ng/mL [7]: 0 (0) n (%)
Trough concentration lower than the target range [7]: 8 (66.7) n (%)
Trough concentration lower than 5 ng/mL (day 3 post-transplantation, CYP3A5 non-expressers, diltiazem (NEdtz, n = 9)): 0 (0) n (%)
Trough concentration lower than 5 ng/mL (day 3 post-transplantation, CYP3A5 non-expressers, diltiazem (NEdtz, n = 9), listed as tacrolimus): none
Trough concentration higher than 15 ng/mL [8]: 0 (0) n (%)
Trough concentration lower than the target range [8]: 0 (0)^b n (%)
Trough concentration lower than 5 ng/mL (day 3 post-transplantation, CYP3A5 non-expressers, placebo (NEplb, n = 8)): 0 (0) n (%)
Trough concentration lower than 5 ng/mL (day 3 post-transplantation, CYP3A5 non-expressers, placebo (NEplb, n = 8), listed as tacrolimus): none
Trough concentration higher than 15 ng/mL [9]: 1 (12.5) n (%)
Trough concentration lower than the target range [9]: 0 (0)^b n (%)
Trough concentration higher than 15 ng/mL [10]: 1 (2.5) n (%)
Trough concentration lower than 5 ng/mL [10]: 5 (12.5) n (%)
Trough concentration lower than the target range [10]: 10 (25.0) n (%)
Trough concentration higher than 15 ng/mL [11]: 0 (0) n (%)
Trough concentration lower than 5 ng/mL [11]: 1 (9.1) n (%)
Trough concentration lower than the target range [11]: 7 (63.6) n (%)
Trough concentration higher than 15 ng/mL [12]: 0 (0) n (%)
Trough concentration lower than 5 ng/mL [12]: 1 (8.3) n (%)
Trough concentration lower than the target range [12]: 7 (58.3) n (%)
Trough concentration higher than 15 ng/mL [13]: 0 (0) n (%)
Trough concentration lower than 5 ng/mL [13]: 0 (0) n (%)
Trough concentration lower than the target range [13]: 2 (22.2) n (%)
Trough concentration higher than 15 ng/mL [14]: 0 (0) n (%)
Trough concentration lower than 5 ng/mL [14]: 2 (25.0) n (%)
Trough concentration lower than the target range [14]: 2 (25.0) n (%)
Trough concentration higher than 15 ng/mL [15]: 0 (0) n (%)
Trough concentration lower than 5 ng/mL [15]: 4 (10.0) n (%)
Trough concentration lower than the target range [15]: 18 (45.0) n (%)
Trough concentration higher than 15 ng/mL [16]: 0 (0) n (%)
Trough concentration lower than 5 ng/mL [16]: 0 (0) n (%)
Trough concentration lower than the target range [16]: 6 (54.5) n (%)
Trough concentration higher than 15 ng/mL [17]: 0 (0) n (%)
Trough concentration lower than 5 ng/mL [17]: 0 (0) n (%)
Trough concentration lower than the target range [17]: 1 (8.3) n (%)
Trough concentration higher than 15 ng/mL [18]: 0 (0) n (%)
Trough concentration lower than 5 ng/mL [18]: 0 (0) n (%)
Trough concentration lower than the target range [18]: 3 (33.3) n (%)
Trough concentration higher than 15 ng/mL [19]: 0 (0) n (%)
Trough concentration lower than 5 ng/mL [19]: 0 (0) n (%)
Trough concentration lower than the target range [19]: 2 (25.0) n (%)
Trough concentration higher than 15 ng/mL [20]: 0 (0) n (%)
Trough concentration lower than 5 ng/mL [20]: 0 (0) n (%)
Trough concentration lower than the target range [20]: 12 (30.0) n (%)
